Consider nine compounds from patent US10344060B2 (priority 2013, dated 2019).

Like-named read-outs stand apart in the source and are kept apart here. Bounds are passed on as bounds.

This experiment has as its target hNav1.7 (Homo sapiens, UniProt Q15858). In words: cell-based. Format: cell-based. Particulars: for Nav1.4/Nav1.7 / Nav1.5/Nav1.7: ratio of PX tonic IC50 values, Table 11.
The mark [1] stands for this setting: Table 12, PatchXpress, tonic block, read-out: PX hNav1.7 Tonic IC50.

Chain of hNav1.7 (Q15858 whole entry): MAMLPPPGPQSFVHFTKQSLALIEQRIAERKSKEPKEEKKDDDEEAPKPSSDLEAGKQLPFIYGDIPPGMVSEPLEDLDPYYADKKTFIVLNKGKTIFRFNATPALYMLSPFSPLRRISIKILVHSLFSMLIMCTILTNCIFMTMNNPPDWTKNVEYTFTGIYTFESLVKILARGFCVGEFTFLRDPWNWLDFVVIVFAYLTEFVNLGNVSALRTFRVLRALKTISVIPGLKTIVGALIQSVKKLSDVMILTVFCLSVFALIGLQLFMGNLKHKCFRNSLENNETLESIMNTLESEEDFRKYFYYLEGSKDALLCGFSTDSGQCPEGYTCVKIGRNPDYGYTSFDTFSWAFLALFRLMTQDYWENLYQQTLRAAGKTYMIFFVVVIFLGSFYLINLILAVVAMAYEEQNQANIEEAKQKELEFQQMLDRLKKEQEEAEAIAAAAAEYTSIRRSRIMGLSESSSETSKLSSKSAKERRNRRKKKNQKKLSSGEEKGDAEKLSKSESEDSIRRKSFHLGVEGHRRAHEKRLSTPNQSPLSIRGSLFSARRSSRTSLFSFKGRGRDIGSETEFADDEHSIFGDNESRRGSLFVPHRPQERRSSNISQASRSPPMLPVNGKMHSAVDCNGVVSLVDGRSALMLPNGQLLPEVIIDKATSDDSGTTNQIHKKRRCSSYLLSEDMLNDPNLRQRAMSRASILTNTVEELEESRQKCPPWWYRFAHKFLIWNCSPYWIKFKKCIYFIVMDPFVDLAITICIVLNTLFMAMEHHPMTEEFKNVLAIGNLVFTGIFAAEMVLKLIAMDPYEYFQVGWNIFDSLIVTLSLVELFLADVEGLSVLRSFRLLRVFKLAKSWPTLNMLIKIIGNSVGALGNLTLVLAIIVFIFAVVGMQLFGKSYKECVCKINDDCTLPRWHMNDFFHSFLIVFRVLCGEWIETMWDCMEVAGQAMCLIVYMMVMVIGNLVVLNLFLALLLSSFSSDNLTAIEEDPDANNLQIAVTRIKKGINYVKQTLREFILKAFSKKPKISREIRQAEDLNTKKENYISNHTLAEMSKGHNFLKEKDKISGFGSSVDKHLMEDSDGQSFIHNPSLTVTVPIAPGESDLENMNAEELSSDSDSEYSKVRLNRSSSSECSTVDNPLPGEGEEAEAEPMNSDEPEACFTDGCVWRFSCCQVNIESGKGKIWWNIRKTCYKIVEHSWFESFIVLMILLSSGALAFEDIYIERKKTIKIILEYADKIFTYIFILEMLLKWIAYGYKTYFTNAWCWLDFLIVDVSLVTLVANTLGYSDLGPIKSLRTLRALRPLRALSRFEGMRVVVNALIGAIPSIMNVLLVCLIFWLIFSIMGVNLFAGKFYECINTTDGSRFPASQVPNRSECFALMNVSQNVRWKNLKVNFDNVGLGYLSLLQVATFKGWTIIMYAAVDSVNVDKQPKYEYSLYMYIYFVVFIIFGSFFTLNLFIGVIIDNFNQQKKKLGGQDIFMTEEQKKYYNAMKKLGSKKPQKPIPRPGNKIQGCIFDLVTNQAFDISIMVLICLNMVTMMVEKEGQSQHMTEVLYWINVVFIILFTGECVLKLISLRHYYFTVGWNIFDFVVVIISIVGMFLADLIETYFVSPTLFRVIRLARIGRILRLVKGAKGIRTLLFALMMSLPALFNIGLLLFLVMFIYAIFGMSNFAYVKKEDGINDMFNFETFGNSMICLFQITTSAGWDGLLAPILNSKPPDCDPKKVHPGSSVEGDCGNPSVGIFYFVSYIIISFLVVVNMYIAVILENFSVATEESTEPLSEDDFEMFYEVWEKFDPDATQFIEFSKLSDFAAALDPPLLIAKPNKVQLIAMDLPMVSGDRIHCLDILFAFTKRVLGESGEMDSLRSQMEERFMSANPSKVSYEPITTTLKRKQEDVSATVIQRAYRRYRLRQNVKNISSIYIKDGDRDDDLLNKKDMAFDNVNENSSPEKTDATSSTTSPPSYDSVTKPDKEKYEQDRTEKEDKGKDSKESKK

Consider `C#CC[C@@H]1NC(=O)[C@@H]2CSSC[C@H](NC(=O)[C@H](CCC(=O)O)NC(=O)[C@H](CCC)NC(=O)[C@@H](N)CCC(=O)O)C(=O)N[C@@H](CCC(N)=O)C(=O)N[C@@H](CCCCN)C(=O)N[C@@H](Cc3c[nH]c4ccccc34)C(=O)N[C@@H](CCCC)C(=O)N[C@@H](Cc3c[nH]c4ccccc34)C(=O)N[C@@H]([C@@H](C)O)C(=O)N[C@H]3CSSC[C@H](NC(=O)[C@H](CCCNC(=N)N)NC(=O)[C@H](CC(C)C)NC(=O)CNC1=O)C(=O)N[C@@H](CCCCN)C(=O)N[C@@H](CC(C)C)C(=O)N[C@@H](Cc1c[nH]c4ccccc14)C(=O)N[C@H](C(=O)N[C@@H](CCCNC(=N)N)C(=O)N[C@@H](CCCCN)C(=O)N[C@@H](CCC(=O)O)C(=O)N[C@H](C(N)=O)[C@@H](C)CC)CSSC[C@H](NC(=O)[C@H](C)NC(=O)[C@H](CCCNC(=N)N)NC(=O)[C@H](CCCCN)NC(=O)[C@H](CCC(=O)O)NC(=O)[C@H](CC(=O)O)NC3=O)C(=O)N2` [compound 772], for which the IC50 under setting [1] was found to be 15.2 nM.

Regarding `C#CC[C@@H]1NC(=O)[C@@H]2CSSC[C@H](NC(=O)[C@H](CCC(=O)O)NC(=O)[C@@H](N)CC#N)C(=O)N[C@@H](CCC(N)=O)C(=O)N[C@@H](CCCCN)C(=O)N[C@@H](Cc3c[nH]c4ccccc34)C(=O)N[C@@H](CCCC)C(=O)N[C@@H](Cc3c[nH]c4ccccc34)C(=O)N[C@@H]([C@@H](C)O)C(=O)N[C@H]3CSSC[C@H](NC(=O)[C@H](CCCNC(=N)N)NC(=O)[C@H](CC(C)C)NC(=O)CNC1=O)C(=O)N[C@@H](CCCCN)C(=O)N[C@@H](CC(C)C)C(=O)N[C@@H](Cc1c[nH]c4ccccc14)C(=O)N[C@H](C(=O)N[C@@H](CCCNC(=N)N)C(=O)N[C@@H](CCCCN)C(=O)N[C@@H](CCC(=O)O)C(=O)N[C@H](C(N)=O)[C@@H](C)CC)CSSC[C@H](NC(=O)[C@H](CCC(=O)O)NC(=O)[C@H](CCCNC(=N)N)NC(=O)[C@H](CCC(=O)O)NC(=O)[C@H](CCC(=O)O)NC(=O)[C@H](CC(=O)O)NC3=O)C(=O)N2` [compound 757], the IC50 under setting [1] is more than 1000 nM.

As to `CCCC[C@@H]1NC(=O)[C@H](Cc2c[nH]c3ccccc23)NC(=O)[C@H](CCCCN)NC(=O)[C@H](CCC(N)=O)NC(=O)[C@@H](NC(=O)[C@H](Cc2ccccc2)NC(=O)[C@@H](N)CC#N)CSSC[C@@H]2NC(=O)[C@@H]3CSSC[C@@H](C(=O)N[C@@H](CCCNC(=N)N)C(=O)N[C@@H](CCCCN)C(=O)N[C@@H](CCC(=O)O)C(=O)N[C@H](C(N)=O)[C@@H](C)CC)NC(=O)[C@H](Cc4c[nH]c5ccccc45)NC(=O)[C@H](CC(C)C)NC(=O)[C@H](CCCCN)NC(=O)[C@H](CSSC[C@H](NC(=O)[C@H]([C@@H](C)O)NC(=O)[C@H](Cc4c[nH]c5ccccc45)NC1=O)C(=O)N[C@@H](CC(=O)O)C(=O)N[C@@H](CO)C(=O)N[C@@H](CCCCN)C(=O)N[C@@H](CCCNC(=N)N)C(=O)N[C@@H](C)C(=O)N3)NC(=O)[C@H](CCCNC(=N)N)NC(=O)[C@H](CC(C)C)NC(=O)CNC(=O)[C@H](CCCCNC(=O)CCOCCOCCOCCOCCOCCOCCOCCOCCOCCOCCOCCOCCN)NC2=O` [compound 551], the Nav1.4/Nav1.7 was found to be 13.

For the compound “[Phe6,Atz(500 Da EtO-PEG*-[Phe6,Atz13*]GpTx-1(1-34)1)13]GpTx-1(1-34) [Homodimeric Conjugate No. 4]”, the Wash out entry is “Yes”. Further, the IC50 (read-out: Nav1.7 PX IC50) was 19 nM.

`CCCC[C@@H]1NC(=O)[C@H](Cc2c[nH]c3ccccc23)NC(=O)[C@H](CCCCN)NC(=O)[C@H](CCC(N)=O)NC(=O)[C@@H](NC(=O)[C@H](Cc2ccc(O)cc2)NC(=O)[C@H](CCC)NC(=O)[C@H](N)CC(C)C)CSSC[C@@H]2NC(=O)[C@@H]3CSSC[C@@H](C(=O)N[C@@H](CCCNC(=N)N)C(=O)N[C@@H](CCCCN)C(=O)N[C@@H](CCC(=O)O)C(=O)N[C@H](C(N)=O)[C@@H](C)CC)NC(=O)[C@H](Cc4c[nH]c5ccccc45)NC(=O)[C@H](CC(C)C)NC(=O)[C@H](CCCCN)NC(=O)[C@H](CSSC[C@H](NC(=O)[C@H]([C@@H](C)O)NC(=O)[C@H](Cc4c[nH]c5ccccc45)NC1=O)C(=O)N[C@@H](CC(=O)O)C(=O)N[C@@H](CO)C(=O)N[C@@H](CCCCN)C(=O)N[C@@H](CCCNC(=N)N)C(=O)N[C@@H](C)C(=O)N3)NC(=O)[C@H](CCCNC(=N)N)NC(=O)[C@H](CC(C)C)NC(=O)CNC(=O)[C@H](CCCCNC(=O)CCOCCOCCOCCOCCOCCOCCOCCOCCOCCOCCOCCOCCN)NC2=O` [compound 473]: the Nav1.4/Nav1.7 was found to be 34 and the Nav1.5/Nav1.7 amounted to 180.

As for `CCCC[C@@H]1NC(=O)[C@H](Cc2c[nH]c3ccccc23)NC(=O)[C@H](CCCCN)NC(=O)[C@H](CCC(N)=O)NC(=O)[C@@H](NC(=O)[C@H](Cc2ccc(O)cc2)NC(=O)[C@@H](N)Cc2cn(CCOCCOCCOCCOCCOCCOCCOCCOCCOCCOCCOCCOCCOCCOCCOCCOCCOCCOCCOCCOCCOCCOCCOCCNC(=O)c3cc(CN)cc(C(=O)NCCOCCOCCOCCOCCOCCOCCOCCOCCOCCOCCOCCOCCOCCOCCOCCOCCOCCOCCOCCOCCOCCOCCOCCn4cc(C[C@H](N)C(=O)N[C@@H](Cc5ccc(O)cc5)C(=O)N[C@H]5CSSC[C@@H]6NC(=O)[C@@H]7CSSC[C@@H](C(=O)N[C@@H](CCCNC(=N)N)C(=O)N[C@@H](CCCCN)C(=O)N[C@@H](CCC(=O)O)C(=O)N[C@H](C(N)=O)[C@@H](C)CC)NC(=O)[C@H](Cc8c[nH]c9ccccc89)NC(=O)[C@H](CC(C)C)NC(=O)[C@H](CCCCN)NC(=O)[C@H](CSSC[C@H](NC(=O)[C@H]([C@@H](C)O)NC(=O)[C@H](Cc8c[nH]c9ccccc89)NC(=O)[C@H](CCCC)NC(=O)[C@H](Cc8c[nH]c9ccccc89)NC(=O)[C@H](CCCCN)NC(=O)[C@H](CCC(N)=O)NC5=O)C(=O)N[C@@H](CC(=O)O)C(=O)N[C@@H](CO)C(=O)N[C@@H](CCCCN)C(=O)N[C@@H](CCCNC(=N)N)C(=O)N[C@@H](C)C(=O)N7)NC(=O)[C@H](CCCNC(=N)N)NC(=O)[C@H](CC(C)C)NC(=O)CNC(=O)[C@H](CCC(=O)O)NC6=O)nn4)c3)nn2)CSSC[C@@H]2NC(=O)[C@@H]3CSSC[C@@H](C(=O)N[C@@H](CCCNC(=N)N)C(=O)N[C@@H](CCCCN)C(=O)N[C@@H](CCC(=O)O)C(=O)N[C@H](C(N)=O)[C@@H](C)CC)NC(=O)[C@H](Cc4c[nH]c5ccccc45)NC(=O)[C@H](CC(C)C)NC(=O)[C@H](CCCCN)NC(=O)[C@H](CSSC[C@H](NC(=O)[C@H]([C@@H](C)O)NC(=O)[C@H](Cc4c[nH]c5ccccc45)NC1=O)C(=O)N[C@@H](CC(=O)O)C(=O)N[C@@H](CO)C(=O)N[C@@H](CCCCN)C(=O)N[C@@H](CCCNC(=N)N)C(=O)N[C@@H](C)C(=O)N3)NC(=O)[C@H](CCCNC(=N)N)NC(=O)[C@H](CC(C)C)NC(=O)CNC(=O)[C@H](CCC(=O)O)NC2=O` [Homodimeric Peptide No. 7], the Wash out result (PatchXpress Nav1.7, whether block washes out (Yes/No)) is given as “No”.

For `CCCC[C@@H]1NC(=O)[C@H](Cc2c[nH]c3ccccc23)NC(=O)[C@H](CCCCN)NC(=O)[C@H](CCC(N)=O)NC(=O)[C@@H](NC(=O)[C@H](Cc2ccc(O)cc2)NC(=O)[C@@H](N)CC#N)CSSC[C@@H]2NC(=O)[C@@H]3CSSC[C@@H](C(=O)N[C@@H](CCCNC(=N)N)C(=O)N[C@@H](CCCCN)C(=O)N[C@@H](CCC(=O)O)C(=O)N[C@@H](Cc4c[nH]c5ccccc45)C(N)=O)NC(=O)[C@H](Cc4c[nH]c5ccccc45)NC(=O)[C@H](CC(C)C)NC(=O)[C@H](CCCCN)NC(=O)[C@H](CSSC[C@H](NC(=O)[C@H]([C@@H](C)O)NC(=O)[C@H](Cc4c[nH]c5ccccc45)NC1=O)C(=O)N[C@@H](CC(=O)O)C(=O)N[C@@H](CO)C(=O)N[C@@H](CCCCN)C(=O)N[C@@H](CCCNC(=N)N)C(=O)N[C@@H](C)C(=O)N3)NC(=O)[C@H](CCCNC(=N)N)NC(=O)[C@H](CC(C)C)NC(=O)CNC(=O)[C@H](CCCCNC(=O)CCOCCOCCOCCOCCOCCOCCOCCOCCOCCOCCOCCOCCN)NC2=O` [compound 459], the Nav1.4/Nav1.7 was determined as 27.

On to `CCCC[C@@H]1NC(=O)[C@H](Cc2c[nH]c3ccccc23)NC(=O)[C@H](CCCCN)NC(=O)[C@H](CCC(N)=O)NC(=O)[C@@H](NC(=O)[C@H](Cc2ccc(O)cc2)NC(=O)[C@@H](C)N)CSSC[C@@H]2NC(=O)[C@@H]3CSSC[C@@H](C(=O)N[C@@H](CCCNC(=N)N)C(=O)N[C@@H](CCCCN)C(=O)N[C@H](C(=O)N[C@H](C(N)=O)[C@@H](C)CC)[C@@H](C)CC)NC(=O)[C@H](Cc4c[nH]c5ccccc45)NC(=O)[C@H](CC(C)C)NC(=O)[C@H](CCCCN)NC(=O)[C@H](CSSC[C@H](NC(=O)[C@H]([C@@H](C)O)NC(=O)[C@H](Cc4c[nH]c5ccccc45)NC1=O)C(=O)N[C@@H](CC(=O)O)C(=O)N[C@@H](CO)C(=O)N[C@@H](CCCCN)C(=O)N[C@@H](CCCNC(=N)N)C(=O)N[C@@H](C)C(=O)N3)NC(=O)[C@H](CCCNC(=N)N)NC(=O)[C@H](CC(C)C)NC(=O)CNC(=O)[C@H](CCC(=O)O)NC2=O` [compound 372], for which the Nav1.4/Nav1.7 is reported as 5 and the Nav1.5/Nav1.7 was determined as 764.

Take `CCCC[C@@H]1NC(=O)[C@H](Cc2c[nH]c3ccccc23)NC(=O)[C@H](CCCCN)NC(=O)[C@H](CCC(N)=O)NC(=O)[C@@H](NC(=O)[C@H](Cc2ccc(O)cc2)NC(=O)[C@@H](N)CC(C)C)CSSC[C@@H]2NC(=O)[C@@H]3CSSC[C@@H](C(=O)N[C@@H](CCCNC(=N)N)C(=O)N[C@@H](CCCCN)C(=O)N[C@@H](CCC(=O)O)C(=O)N[C@H](C(N)=O)[C@@H](C)CC)NC(=O)[C@H](Cc4c[nH]c5ccccc45)NC(=O)[C@H](CC(C)C)NC(=O)[C@H](CCCCN)NC(=O)[C@H](CSSC[C@H](NC(=O)[C@H]([C@@H](C)O)NC(=O)[C@H](Cc4c[nH]c5ccccc45)NC1=O)C(=O)N[C@@H](CC(=O)O)C(=O)N[C@@H](CO)C(=O)N[C@@H](CCCCN)C(=O)N[C@@H](CCCNC(=N)N)C(=O)N[C@@H](C)C(=O)N3)NC(=O)[C@H](CCCNC(=N)N)NC(=O)[C@H](CC(C)C)NC(=O)CNC(=O)[C@H](CCCCNC(=O)CCOCCOCCOCCOCCOCCOCCOCCOCCOCCOCCOCCOCCN)NC2=O` [compound 462]: the Nav1.4/Nav1.7 came out at 20.

The IC50 is the concentration that inhibits the measured activity by half.
